Assay results from patent US20130178475A1, “sGC STIMULATORS” (IRONWOOD PHARMACEUTICALS, INC., priority 2010, published 2013).

Key:
thoracic aortic rings = experiment: Thoracic aortic rings assay; settings: relaxation of male Sprague-Dawley rat aortic rings contracted with 100 ng/mL phenylephrine; read-out: EC50, thoracic aortic ring assay activity
Protocol: Thoracic aortic rings were dissected from anesthetized (isoflurane) male Sprague-Dawley rats weighing 275-299 g. Tissues were immediately transferred to ice-cold Krebs-Henseleit solution, which had been aerated with 95% O2 and 5% CO2 for 30 minutes. Following removal of connective tissue, aortic sections were cut into 4 rings (˜2 mm each) and suspended on 2 L-shaped hooks, with one hook fixed at the bottom of the tissue bath (Schuler Organ Bath, Harvard Apparatus) and the other connected to a force transducer (F30 Force Transducer, Harvard Apparatus). Baths contained Krebs Henseleit solution (10 mL) heated to 37° C. and aerated with 95% O2 and 5% CO2. Rings were brought to an initial tension of 0.3-0.5 g and gradually raised to a resting tension of 1.0 g over 60 minutes. Rings were rinsed with Krebs Henseleit solution (heated to 37° C. and aerated with 95% O2 and 5% CO2) at 15 minute intervals until a stable baseline was obtained. Rings were considered to be stable after a resting tension of 1.0 g was maintained (for approximately 10 minutes) without need for adjustment. Rings were then contracted with 100 ng/mL phenylephrine by adding 100 uL of a […] phenylephrine stock solution. Tissues achieving a stable contraction were then treated in a cumulative, dose dependent manner with test compounds prepared in dimethylsulfoxide (DMSO). In some cases, tissues were rinsed three times over a 5 minute period with Krebs-Heinseleit's solution (heated to 37° C. and aerated with 95% O2 and 5% CO2), allowed to stabilize at baseline, and then used for characterization of other test articles or DMSO effects. All data were collected using the HSE-ACAD software provided by Harvard Apparatus. Percent relaxation effects were calculated in Microsoft Excel using the recorded tension value of 100 ng/mL phenylephrine treatment as 0% inhibition and treatment with 100 μM 3-isobutyl-1-methylxanthine as 100% inhibition. EC50 values were calculated from concentration-response curves generated with GraphPad Prism Software.

[1] = target: T1, soluble guanylate cyclase (sGC) (Homo sapiens, UniProt Q02108+Q02153); experiment: sGC-HEK-cGMP assay; assay type: cell-based; settings: HEK293 cells, 10 min incubation, intracellular cGMP by LC/MS; for Increase in cGMP Concentration Tested at 10 μM in HEK Assay: test compound 10 μM; for Increase in cGMP Concentration Tested at 30 μM in HEK Assay: test compound 30 μM
T1 construct: endogenously expressing soluble guanylate cyclase (sGC); endogenous in cells; host or cells: HEK293
T1 sequence (Q02153 1-619): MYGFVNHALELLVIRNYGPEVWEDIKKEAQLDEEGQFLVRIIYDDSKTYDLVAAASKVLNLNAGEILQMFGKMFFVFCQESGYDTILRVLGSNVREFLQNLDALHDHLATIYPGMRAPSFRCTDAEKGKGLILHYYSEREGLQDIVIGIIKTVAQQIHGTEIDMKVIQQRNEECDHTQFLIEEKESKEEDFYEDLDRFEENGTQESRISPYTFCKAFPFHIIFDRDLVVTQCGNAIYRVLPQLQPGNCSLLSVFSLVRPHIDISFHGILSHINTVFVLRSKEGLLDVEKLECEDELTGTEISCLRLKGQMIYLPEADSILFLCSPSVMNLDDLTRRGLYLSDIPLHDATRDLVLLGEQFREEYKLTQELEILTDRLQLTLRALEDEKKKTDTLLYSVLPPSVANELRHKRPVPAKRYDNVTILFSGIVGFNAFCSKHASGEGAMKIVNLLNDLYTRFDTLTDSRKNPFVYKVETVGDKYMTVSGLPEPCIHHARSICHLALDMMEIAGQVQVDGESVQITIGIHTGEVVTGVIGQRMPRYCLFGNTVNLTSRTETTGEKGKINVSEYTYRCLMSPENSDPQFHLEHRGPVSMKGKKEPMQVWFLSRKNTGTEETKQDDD
T1 sequence (Q02108 1-690): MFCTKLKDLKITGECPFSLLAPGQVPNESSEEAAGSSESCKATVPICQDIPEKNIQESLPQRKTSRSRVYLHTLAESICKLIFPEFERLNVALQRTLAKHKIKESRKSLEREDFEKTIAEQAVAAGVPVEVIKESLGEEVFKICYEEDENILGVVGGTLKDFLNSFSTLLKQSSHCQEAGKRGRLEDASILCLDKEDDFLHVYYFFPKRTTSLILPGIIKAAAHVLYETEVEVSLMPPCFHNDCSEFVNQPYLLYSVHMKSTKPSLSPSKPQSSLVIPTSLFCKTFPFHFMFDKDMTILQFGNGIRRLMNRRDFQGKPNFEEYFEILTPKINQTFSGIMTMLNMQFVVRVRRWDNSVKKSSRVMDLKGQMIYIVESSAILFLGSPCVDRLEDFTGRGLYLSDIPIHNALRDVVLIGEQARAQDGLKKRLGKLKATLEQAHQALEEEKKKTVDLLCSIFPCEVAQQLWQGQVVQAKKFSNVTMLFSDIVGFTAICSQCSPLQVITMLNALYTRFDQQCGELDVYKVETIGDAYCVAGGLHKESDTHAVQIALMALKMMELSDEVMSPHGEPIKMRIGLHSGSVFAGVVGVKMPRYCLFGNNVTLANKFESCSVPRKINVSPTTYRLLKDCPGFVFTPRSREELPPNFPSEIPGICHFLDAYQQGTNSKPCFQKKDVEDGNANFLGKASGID
Protocol: Human embryonic kidney cells (HEK293), endogenously expressing soluble guanylate cyclase (sGC), were used to evaluate the activity of test compounds. Compounds stimulating the sGC receptor should cause an increase in the intracellular concentration of cGMP. […] Cells were then incubated for 15 minutes at 37° C. with 0.5 mM 3-isobutyl-1-methylxanthine (2004). Test article was then added to the assay mixture (2 μL) and incubated at 37° C. for 10 minutes. After the 10 minute incubation, the assay mixture was aspirated and 0.1M HCl (2004) was added to the cells. The plate was incubated at 4° C. for 30 minutes in the 0.1M HCl to stop the reaction and lyse the cells. The plates were then centrifuged at 1,200 g for 5 minutes at room temperature. Supernatants were collected and transferred to a new flat bottom 96 well plate for analysis. Vehicle controls were carried out using DMSO (1%). A known sGC stimulator, BAY 41-2272, was used as the positive control.
Samples were diluted with an equal volume of 1 M Ammonium Acetate (pH 7) to neutralize samples for better chromatography. A 2×cGMP standard curve was prepared in 0.1 M HCl and then diluted with an equal volume of 1 M Ammonium Acetate, with the following final concentrations in nM: 1024, 512, 256, 128, 64, 32, 16, 8, 4, 2, 1.
cGMP concentrations were determined from each sample using the LC/MS conditions (Table 2 below) and calculated standard curve. EC50 values were calculated from concentration-response curves generated with GraphPad Prism Software.

SMILES | EC50 (thoracic aortic rings) | Increase in cGMP Concentration Tested at 10 μM in HEK Assay [1] | Increase in cGMP Concentration Tested at 30 μM in HEK Assay [1]
Nc1nc(-c2nn(Cc3ccccc3F)c3ncccc23)ncc1C1CC1 [Reference Cpd., BAY 41-2272, reference compound] | 0.34 to 0.95 µM | – | –
Fc1ccccc1Cn1nc(-c2ncccn2)c2c1CCCC2 [Compound I-1] | 1.3 µM | D (D represents an increase ranging from 20 fold to less than 50 fold) | D (D represents an increase ranging from 20 fold to less than 50 fold)
Nc1ccnc(-c2nn(Cc3ccccc3F)c3c2CCC3)n1 [Compound I-3] | 1.2 µM | D (D represents an increase ranging from 20 fold to less than 50 fold) | E (E represents an increase ranging from 50 fold to less than 100 fold)
COC(=O)N(C)c1c(N)nc(-c2nn(Cc3ccccc3F)c3c2CCC3)nc1N [Compound I-37] | 1.2 µM | C (C represents an increase ranging from 10 fold to less than 20 fold) | B (B represents an increase ranging from 5 fold to less than 10 fold)
Nc1ccnc(-c2nn(Cc3ccccc3F)c3c2CCCC3)n1 [Compound I-22] | 2 µM | D (D represents an increase ranging from 20 fold to less than 50 fold) | E (E represents an increase ranging from 50 fold to less than 100 fold)
COC(=O)Nc1c(N)nc(-c2nn(Cc3ccccc3F)c3c2CCC3)nc1N [Compound I-36] | – | C (C represents an increase ranging from 10 fold to less than 20 fold) | B (B represents an increase ranging from 5 fold to less than 10 fold)
Nc1nc(-c2nn(Cc3ccccc3F)c3c2CCCC3)nc(N)c1N1CCOC1=O [Compound I-26] | – | A (A represents no increase or an increase ranging from more than 0 fold to less than 5 fold) | B (B represents an increase ranging from 5 fold to less than 10 fold)
